# Biological target: 6×HIS-tankyrase 1 (1091-1325) (Homo sapiens (Human), UniProt O95271)
# Experiment: biochemical
# Format: biochemical
# Details: 0.25 nM enzyme, 400 nM NAD, 60 minutes at room temperature; read-out: TNKS1 IP IC50
# 6×HIS-tankyrase 1 (1091-1325), sequence (O95271 1091-1325): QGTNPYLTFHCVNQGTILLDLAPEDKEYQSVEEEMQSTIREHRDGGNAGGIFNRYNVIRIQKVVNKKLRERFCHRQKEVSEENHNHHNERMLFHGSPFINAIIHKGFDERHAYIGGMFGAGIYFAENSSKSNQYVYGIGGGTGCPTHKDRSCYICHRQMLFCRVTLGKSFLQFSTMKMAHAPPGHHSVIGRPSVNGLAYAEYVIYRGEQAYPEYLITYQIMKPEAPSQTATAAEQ
row,Compound,IC50 [nM]
1,"CC1(C)OC(=O)N([C@H]2C[C@H](c3nnc(-c4ccccc4)o3)C2)[C@@H]1c1ccccc1 (single isomer, unassigned) [Example 176]",3130
2,"CC1(C)OC(=O)N([C@H]2C[C@H](c3nnc(-c4ccccc4)o3)C2)[C@H]1c1ccccc1 (single isomer, unassigned) [Example 177]",1020
3,"CC1(C)OC(=O)N([C@H]2CC[C@H](c3cccnc3)CC2)[C@H]1c1ccccc1 [Example 133, (S)-5,5-dimethyl-4-phenyl-3-((1r,4s)-4-(pyridin-3-yl)cyclohexyl)oxazolidin-2-one]",1380
4,"Cc1ccc([C@H]2CC[C@@H](N3C(=O)OC(C)(C)[C@@H]3c3ccccc3)CC2)cn1 [Example 134, (S)-5,5-dimethyl-3-((1 s,4r)-4-(6-methylpyridin-3-yl)cyclohexyl)-4-phenyloxazolidin-2-one]",> 46300
5,"Cc1ccc([C@H]2CC[C@H](N3C(=O)OC(C)(C)[C@@H]3c3ccccc3)CC2)cn1 [Example 135, (S)-5,5-dimethyl-3-((1r,4s)-4-(6-methylpyridin-3-yl)cyclohexyl)-4-phenyloxazolidin-2-one]",1380
6,"CC1(C)OC(=O)N([C@H]2CC[C@@H](c3cnc4[nH]ccc4c3)CC2)[C@H]1c1ccccc1 [Example 136, (S)-3-((1s,4r)-4-(1H-pyrrolo[2,3-b]pyridin-5-yl)cyclohexyl)-5,5-dimethyl-4-phenyloxazolidin-2-one]",5.17
7,"CC1(C)OC(=O)N([C@H]2CC[C@H](c3cnc4[nH]ccc4c3)CC2)[C@H]1c1ccccc1 [Example 137, (S)-3-((1r,4s)-4-(1H-pyrrolo[2,3-b]pyridin-5-yl)cyclohexyl)-5,5-dimethyl-4-phenyloxazolidin-2-one]",218
8,"CC1(C)OC(=O)N([C@H]2CC[C@@H](c3cc4ccncc4[nH]c3=O)CC2)[C@H]1c1ccccc1 [Example 138, (S)-5,5-dimethyl-3-((1s,4r)-4-(2-oxo-1,2-dihydro-1,7-naphthyridin-3-yl)cyclohexyl)-4-phenyloxazolidin-2-one]",1250
9,"CC1(C)OC(=O)N([C@H]2CC[C@H](c3cc4ccncc4[nH]c3=O)CC2)[C@H]1c1ccccc1 [Example 139, (S)-5,5-dimethyl-3-((1r,4s)-4-(2-oxo-1,2-dihydro-1,7-naphthyridin-3-yl)cyclohexyl)-4-phenyloxazolidin-2-one]",11.5

# Same assay, conditions: […] enzyme, 400 nM NAD, 60 minutes at room temperature; read-out: TNKS1 IP IC50
row,Compound,IC50 [nM]
1,"CC1(C)OC(=O)N(C2CC(c3nnc(-c4ccccc4)o3)C2)[C@@H]1c1ccccc1 (mixture of isomers) [Example 175, Mixture of (R)-5,5-dimethyl-4-phenyl-3-((1r,3R)-3-(5-phenyl-1,3,4-oxadiazol-2-yl)cyclobutyl)oxazolidin-2-one compound and (S)-5,5-dimethyl-4-phenyl-3-((1r,3S)-3-(5-phenyl-1,3,4-oxadiazol-2-yl)cyclobutyl)oxazolidin-2-one (1:1)]",1470
2,"CC1(C)OC(=O)N(c2ccc(C(=O)Nc3cnccc3O)cc2)[C@H]1c1ccccc1 [Example 21, (S)-4-(5,5-dimethyl-2-oxo-4-phenyloxazolidin-3-yl)-N-(4-hydroxypyridin-3-yl)benzamide]",1340
3,"CC1(C)OC(=O)N(C2CC=C(c3cc4ccncc4[nH]c3=O)CC2)[C@H]1c1ccccc1 (stereo partly drawn) [Example 87, (4S)-5,5-dimethyl-3-(4-(2-oxo-1,2-dihydro-1,7-naphthyridin-3-yl)cyclohex-3-en-1-yl)-4-phenyloxazolidin-2-one]",6.91
4,"CC(C)c1cc(C(=O)N[C@H]2CC[C@H](N3C(=O)OC(C)(C)[C@@H]3c3ccccc3)CC2)[nH]n1 [Example 154, N-((1S,4r)-4-((S)-5,5-dimethyl-2-oxo-4-phenyloxazolidin-3-yl)cyclohexyl)-3-isopropyl-1H-pyrazole-5-carboxamide]",2320
5,"CC1(C)OC(=O)N([C@H]2CC[C@H](NC(=O)c3coc(-c4ccccc4)n3)CC2)[C@H]1c1ccccc1 [Example 164, N-((1S,4r)-4-((S)-5,5-dimethyl-2-oxo-4-phenyloxazolidin-3-yl)cyclohexyl)-2-phenyloxazole-4-carboxamide]",51.9

# The remaining lines, values ahead:
row,IC50 [nM],Compound
1,755,"CC1(C)OC(=O)N([C@H]2CC[C@H](NC(=O)c3ccccc3)CC2)[C@H]1c1ccccc1 [Example 141, N-((1S,4r)-4-((S)-5,5-dimethyl-2-oxo-4-phenyloxazolidin-3-yl)cyclohexyl)benzamide]"
2,205,"CC1(C)OC(=O)N([C@H]2CC[C@H](NC(=O)c3ccncc3)CC2)[C@H]1c1ccccc1 [Example 142, N-((1S,4r)-4-((S)-5,5-dimethyl-2-oxo-4-phenyloxazolidin-3-yl)cyclohexyl)isonicotinamide]"
3,225,"Cn1cc(C(=O)N[C@H]2CC[C@H](N3C(=O)OC(C)(C)[C@@H]3c3ccccc3)CC2)c2ccccc21 [Example 143, N-((1R,4r)-4-((R)-5,5-dimethyl-2-oxo-4-phenyloxazolidin-3-yl)cyclohexyl)-1-methyl-1H-indole-3-carboxamide]"
4,222,"Cn1cc2c(C(=O)N[C@H]3CC[C@H](N4C(=O)OC(C)(C)[C@H]4c4ccccc4)CC3)cccc2n1 [Example 144, N-((1R,4r)-4-((R)-5,5-dimethyl-2-oxo-4-phenyloxazolidin-3-yl)cyclohexyl)-2-methyl-2H-indazole-4-carboxamide]"
5,13.7,"Cn1cc2cccc(C(=O)N[C@H]3CC[C@H](N4C(=O)OC(C)(C)[C@@H]4c4ccccc4)CC3)c2n1 [Example 145, N-((1S,4r)-4-((S)-5,5-dimethyl-2-oxo-4-phenyloxazolidin-3-yl)cyclohexyl)-2-methyl-2H-indazole-7-carboxamide]"
6,9.18,"CC1(C)OC(=O)N([C@H]2CC[C@H](NC(=O)c3cnn4cccnc34)CC2)[C@H]1c1ccccc1 [Example 146, N-((1S,4r)-4-((S)-5,5-dimethyl-2-oxo-4-phenyloxazolidin-3-yl)cyclohexyl)pyrazolo[1,5-a]pyrimidine-3-carboxamide]"
7,26.4,"CC1(C)OC(=O)N([C@H]2CC[C@H](NC(=O)c3ccc4cc[nH]c4n3)CC2)[C@H]1c1ccccc1 [Example 147, N-((1S,4r)-4-((S)-5,5-dimethyl-2-oxo-4-phenyloxazolidin-3-yl)cyclohexyl)-1H-pyrrolo[2,3-b]pyridine-6-carboxamide]"
8,34,"CC1(C)OC(=O)N([C@H]2CC[C@H](NC(=O)c3cc4ccncc4[nH]3)CC2)[C@H]1c1ccccc1 [Example 149, N-((1S,4r)-4-((S)-5,5-dimethyl-2-oxo-4-phenyloxazolidin-3-yl)cyclohexyl)-1H-pyrrolo[2,3-c]pyridine-2-carboxamide]"
9,1540,"CC1(C)OC(=O)N([C@H]2CC[C@H](NC(=O)c3ccc4scnc4c3)CC2)[C@H]1c1ccccc1 [Example 150, N-((1S,4r)-4-((S)-5,5-dimethyl-2-oxo-4-phenyloxazolidin-3-yl)cyclohexyl)benzo[d]thiazole-5-carboxamide]"
10,16600,"Cn1cncc1C(=O)N[C@H]1CC[C@H](N2C(=O)OC(C)(C)[C@@H]2c2ccccc2)CC1 [Example 151, N-((1S,4r)-4-((S)-5,5-dimethyl-2-oxo-4-phenyloxazolidin-3-yl)cyclohexyl)-1-methyl-1H-imidazole-5-carboxamide]"
11,228,"CC1(C)OC(=O)N([C@H]2CC[C@H](NC(=O)c3ccnc4[nH]ccc34)CC2)[C@H]1c1ccccc1 [Example 152, N-((1S,4r)-4-((S)-5,5-dimethyl-2-oxo-4-phenyloxazolidin-3-yl)cyclohexyl)-1H-pyrrolo[2,3-b]pyridine-4-carboxamide]"
12,848,"CC1(C)OC(=O)N([C@H]2CC[C@H](NC(=O)c3cccc4[nH]ncc34)CC2)[C@H]1c1ccccc1 [Example 153, N-((1S,4r)-4-((S)-5,5-dimethyl-2-oxo-4-phenyloxazolidin-3-yl)cyclohexyl)-1H-indazole-4-carboxamide]"
13,548,"CC1(C)OC(=O)N([C@H]2CC[C@H](NC(=O)c3cnc4ccccc4c3)CC2)[C@@H]1c1ccccc1 [Example 155, N-((1R,4r)-4-((R)-5,5-dimethyl-2-oxo-4-phenyloxazolidin-3-yl)cyclohexyl)quinoline-3-carboxamide]"
14,76.8,"CC1(C)OC(=O)N([C@H]2CC[C@H](NC(=O)c3nc4ccccc4[nH]3)CC2)[C@H]1c1ccccc1 [Example 157, N-((1S,4r)-4-((S)-5,5-dimethyl-2-oxo-4-phenyloxazolidin-3-yl)cyclohexyl)-1H-benzo[d]imidazole-2-carboxamide]"
15,142,"CC1(C)OC(=O)N([C@H]2CC[C@H](NC(=O)c3ccc[nH]3)CC2)[C@H]1c1ccccc1 [Example 158, N-((1S,4r)-4-((S)-5,5-dimethyl-2-oxo-4-phenyloxazolidin-3-yl)cyclohexyl)-1H-pyrrole-2-carboxamide]"
16,1560,"CC1(C)OC(=O)N([C@H]2CC[C@H](NC(=O)c3ccc4nccn4c3)CC2)[C@H]1c1ccccc1 [Example 159, N-((1S,4r)-4-((S)-5,5-dimethyl-2-oxo-4-phenyloxazolidin-3-yl)cyclohexyl)imidazo[1,2-a]pyridine-6-carboxamide]"
17,1460,"CC1(C)OC(=O)N([C@H]2CC[C@H](NC(=O)c3nccs3)CC2)[C@H]1c1ccccc1 [Example 160, N-((1S,4r)-4-((S)-5,5-dimethyl-2-oxo-4-phenyloxazolidin-3-yl)cyclohexyl)thiazole-2-carboxamide]"
18,350,"CC1(C)OC(=O)N([C@H]2CC[C@H](NC(=O)c3cnn(-c4ccccc4)c3)CC2)[C@H]1c1ccccc1 [Example 161, N-((1S,4r)-4-((S)-5,5-dimethyl-2-oxo-4-phenyloxazolidin-3-yl)cyclohexyl)-1-phenyl-1H-pyrazole-4-carboxamide]"
19,101,"CC1(C)OC(=O)N([C@H]2CC[C@H](NC(=O)c3cn4ccccc4n3)CC2)[C@@H]1c1ccccc1 [Example 162, N-((1R,4r)-4-((R)-5,5-dimethyl-2-oxo-4-phenyloxazolidin-3-yl)cyclohexyl)imidazo[1,2-a]pyridine-2-carboxamide]"
20,220,"COc1ccccc1C(=O)N[C@H]1CC[C@H](N2C(=O)OC(C)(C)[C@@H]2c2ccccc2)CC1 [Example 163, N-((1S,4r)-4-((S)-5,5-dimethyl-2-oxo-4-phenyloxazolidin-3-yl)cyclohexyl)-2-methoxybenzamide]"

# Reference: patent publication US9340549B2, “Oxazolidinone compounds and derivatives thereof” (priority 2012, dated 2016)
